Patent US20250041312A1, “METHODS OF ADMINISTERING A MODULATOR OF HEMOGLOBIN” (Global Blood Therapeutics, Inc., priority 2021, published 2025)
Like-named read-outs stand apart in the source and are kept apart here.

Experiment: SAD study in healthy volunteers: PK in plasma, whole blood, red blood cells
Assay type: in vivo, human
Conditions: for Cmax / AUC(0-t) / half-life / Kp / blood plasma ratio: human; for Kp: red blood cells and plasma; for Kp / blood plasma ratio: HV, dose range of 50 to 2200 mg; for blood plasma ratio: whole blood and plasma
Protocol: To evaluate the safety and tolerability of single ascending doses of Compound I, 48 healthy volunteers (42 in the fasted state and 6 in the fed state) aged 18 to 55 years old were administered single ascending doses (50 mg to 2200 mg) of Compound I, while 16 healthy volunteers (14 in the fasted state and 2 in the fed state) aged 18 to 55 years old were administered placebo in a double blind, randomized, sequential manner.
Whole blood pharmacokinetic (PK) parameters, using actual sample collection times, and hemoglobin occupancy after single ascending dose are shown in Table 5 (containing data from both healthy volunteers and SCD subjects) and Table 6 (containing data from only healthy volunteer subjects).

In the case of O=Cc1c(O)cccc1OC[C@@H]1COCCN1C(=O)c1cccnc1CCO [Compound I, (S)-2-hydroxy-6-((4-(2-(2-hydroxyethyl)nicotinoyl)morpholin-3-yl)methoxy)benzaldehyde], the “B:P ratio (mean AUC0-t blood:mean AUC0-t plasma)” value (HV single 50 mg) is reported as 220, the “B:P ratio (mean AUC0-t blood:mean AUC0-t plasma)” value (HV single 100 mg) is reported as 214 and the “B:P ratio (mean AUC0-t blood:mean AUC0-t plasma)” value (HV single 200 mg) is reported as 206. The “B:P ratio (mean AUC0-t blood:mean AUC0-t plasma)” value (HV single 400 mg) was 185, the “B:P ratio AUC0-inf” value (healthy subjects n=6, single 100 mg) was 216 and the Cmax (plasma, 100 mg, healthy volunteers n=6, single 100 mg, geometric mean) was 714 ng/mL. It also gave an AUC(0-t) (plasma, 100 mg, healthy volunteers n=6, single 100 mg, plasma, geometric mean, read-out: AUC0-t) of 68.7 µg·h/mL, a half-life (plasma, 100 mg, healthy volunteers n=6, single 100 mg, plasma, geometric mean, read-out: t½ (converted)) of 25.6 days and a Cmax (plasma, po, 50 mg, HV single oral 50 mg (Cohort 1), geometric mean) of 400 ng/mL. The AUC(0-t) (plasma, po, 50 mg, HV single oral 50 mg (Cohort 1), plasma, geometric mean, read-out: AUClast) was 31.1 µg·h/mL, the half-life (plasma, po, 50 mg, HV single oral 50 mg (Cohort 1), plasma, geometric mean, read-out: t1/2 (converted)) was 28.7 days and the Cmax (plasma, po, 100 mg, HV single oral 100 mg (Cohort 2), geometric mean) was 714 ng/mL. The AUC(0-t) (plasma, po, 100 mg, HV single oral 100 mg (Cohort 2), plasma, geometric mean, read-out: AUClast) was 68.7 µg·h/mL, the half-life (plasma, po, 100 mg, HV single oral 100 mg (Cohort 2), plasma, geometric mean, read-out: t1/2 (converted)) was 25.6 days and the Cmax (plasma, po, 200 mg, HV single oral 200 mg (Cohort 3), geometric mean) was 1290 ng/mL. It also gave an AUC(0-t) (plasma, po, 200 mg, HV single oral 200 mg (Cohort 3), plasma, geometric mean, read-out: AUClast) of 135 µg·h/mL, a half-life (plasma, po, 200 mg, HV single oral 200 mg (Cohort 3), plasma, geometric mean, read-out: t1/2 (converted)) of 30.8 days and a Cmax (plasma, po, 400 mg, HV single oral 400 mg (Cohort 5), geometric mean) of 3190 ng/mL. The AUC(0-t) (plasma, po, 400 mg, HV single oral 400 mg (Cohort 5), plasma, geometric mean, read-out: AUClast) was 331 µg·h/mL, the half-life (plasma, po, 400 mg, HV single oral 400 mg (Cohort 5), plasma, geometric mean, read-out: t1/2 (converted)) was 26 days and the Cmax (plasma, po, 800 mg, HV single oral 800 mg (Cohort 6), geometric mean) was 4250 ng/mL. For the same compound, the AUC(0-t) (plasma, po, 800 mg, HV single oral 800 mg (Cohort 6), plasma, geometric mean, read-out: AUClast) was 609 µg·h/mL, the half-life (plasma, po, 800 mg, HV single oral 800 mg (Cohort 6), plasma, geometric mean, read-out: t1/2 (converted)) was 20.7 days and the Cmax (plasma, po, 1400 mg, HV single oral 1400 mg (Cohort 7), geometric mean) was 7780 ng/mL. For the same compound, the AUC(0-t) (plasma, po, 1400 mg, HV single oral 1400 mg (Cohort 7), plasma, geometric mean, read-out: AUClast) was 1030 µg·h/mL, the half-life (plasma, po, 1400 mg, HV single oral 1400 mg (Cohort 7), plasma, geometric mean, read-out: t1/2 (converted)) was 21.4 days and the Cmax (plasma, po, 2200 mg, HV single oral 2200 mg (Cohort 8), geometric mean) was 9300 ng/mL. It also gave an AUC(0-t) (plasma, po, 2200 mg, HV single oral 2200 mg (Cohort 8), plasma, geometric mean, read-out: AUClast) of 1360 µg·h/mL, a half-life (plasma, po, 2200 mg, HV single oral 2200 mg (Cohort 8), plasma, geometric mean, read-out: t1/2 (converted)) of 22.1 days and a Kp (read-out: mean RBC to plasma ratio for AUCinf) of 420 to 530. The Kp (read-out: mean RBC to plasma ratio for Cmax) was 49 to 99, the AUC(0-t) (red blood cells, po, 50 mg, HV single oral 50 mg (Cohort 1), red blood cells (calculated conc.), geometric mean, read-out: AUClast) was 16500 µg·h/mL and the half-life (red blood cells, po, 50 mg, HV single oral 50 mg (Cohort 1), red blood cells (calculated conc.), geometric mean, read-out: t1/2 (converted)) was 28.3 days. The Cmax (red blood cells, po, 50 mg, HV single oral 50 mg (Cohort 1), red blood cells (conc. calculated from blood, plasma, hematocrit), geometric mean) was 19300 ng/mL, the Cmax (red blood cells, po, 100 mg, HV single oral 100 mg (Cohort 2), red blood cells (calculated conc.), geometric mean) was 41700 ng/mL and the AUC(0-t) (red blood cells, po, 100 mg, HV single oral 100 mg (Cohort 2), red blood cells (calculated conc.), geometric mean, read-out: AUClast) was 34500 µg·h/mL. For the same compound, the half-life (red blood cells, po, 100 mg, HV single oral 100 mg (Cohort 2), red blood cells (calculated conc.), geometric mean, read-out: t1/2 (converted)) was 29 days, the Cmax (red blood cells, po, 200 mg, HV single oral 200 mg (Cohort 3), red blood cells (calculated conc.), geometric mean) was 76900 ng/mL and the AUC(0-t) (red blood cells, po, 200 mg, HV single oral 200 mg (Cohort 3), red blood cells (calculated conc.), geometric mean, read-out: AUClast) was 64400 µg·h/mL. The half-life (red blood cells, po, 200 mg, HV single oral 200 mg (Cohort 3), red blood cells (calculated conc.), geometric mean, read-out: t1/2 (converted)) was 28.1 days, the Cmax (red blood cells, po, 400 mg, HV single oral 400 mg (Cohort 5), red blood cells (calculated conc.), geometric mean) was 210000 ng/mL and the AUC(0-t) (red blood cells, po, 400 mg, HV single oral 400 mg (Cohort 5), red blood cells (calculated conc.), geometric mean, read-out: AUClast) was 151000 µg·h/mL. It also gave a half-life (red blood cells, po, 400 mg, HV single oral 400 mg (Cohort 5), red blood cells (calculated conc.), geometric mean, read-out: t1/2 (converted)) of 25.2 days, a Cmax (red blood cells, po, 800 mg, HV single oral 800 mg (Cohort 6), red blood cells (calculated conc.), geometric mean) of 351000 ng/mL and an AUC(0-t) (red blood cells, po, 800 mg, HV single oral 800 mg (Cohort 6), red blood cells (calculated conc.), geometric mean, read-out: AUClast) of 247000 µg·h/mL. It also gave a half-life (red blood cells, po, 800 mg, HV single oral 800 mg (Cohort 6), red blood cells (calculated conc.), geometric mean, read-out: t1/2 (converted)) of 26 days, a Cmax (red blood cells, po, 1400 mg, HV single oral 1400 mg (Cohort 7), red blood cells (calculated conc.), geometric mean) of 543000 ng/mL and an AUC(0-t) (red blood cells, po, 1400 mg, HV single oral 1400 mg (Cohort 7), red blood cells (calculated conc.), geometric mean, read-out: AUClast) of 455000 µg·h/mL. The half-life (red blood cells, po, 1400 mg, HV single oral 1400 mg (Cohort 7), red blood cells (calculated conc.), geometric mean, read-out: t1/2 (converted)) was 27.4 days, the Cmax (red blood cells, po, 2200 mg, HV single oral 2200 mg (Cohort 8), red blood cells (calculated conc.), geometric mean) was 910000 ng/mL and the AUC(0-t) (red blood cells, po, 2200 mg, HV single oral 2200 mg (Cohort 8), red blood cells (calculated conc.), geometric mean, read-out: AUClast) was 626000 µg·h/mL. It also gave a half-life (red blood cells, po, 2200 mg, HV single oral 2200 mg (Cohort 8), red blood cells (calculated conc.), geometric mean, read-out: t1/2 (converted)) of 24.6 days, a blood plasma ratio (read-out: mean blood to plasma ratio for AUCinf) of 177 to 219 and a blood plasma ratio (read-out: mean blood to plasma ratio for Cmax) of 20 to 42. For the same compound, the Cmax (whole blood, 50 mg, HV single 50 mg, mean) was 8100 ng/mL, the AUC(0-t) (whole blood, 50 mg, HV single 50 mg, whole blood, mean, read-out: AUC0-t) was 6900 µg·h/mL and the half-life (whole blood, 50 mg, HV single 50 mg, whole blood, mean, read-out: t1/2 (converted)) was 28.9 days. It also gave a Cmax (whole blood, 100 mg, HV single 100 mg, mean) of 17400 ng/mL, an AUC(0-t) (whole blood, 100 mg, HV single 100 mg, whole blood, mean, read-out: AUC0-t) of 14400 µg·h/mL and a half-life (whole blood, 100 mg, HV single 100 mg, whole blood, mean, read-out: t1/2 (converted)) of 29.8 days. For the same compound, the Cmax (whole blood, 100 mg, healthy subjects n=6, single 100 mg, blood, geometric mean) was 17300 ng/mL, the AUC(0-t) (whole blood, 100 mg, healthy subjects n=6, single 100 mg, blood, geometric mean, read-out: AUC0-t) was 14300 µg·h/mL and the half-life (whole blood, 100 mg, healthy subjects n=6, single 100 mg, blood, geometric mean, read-out: t½ (converted)) was 29.1 days. The Cmax (whole blood, 200 mg, HV single 200 mg, mean) was 35800 ng/mL, the AUC(0-t) (whole blood, 200 mg, HV single 200 mg, whole blood, mean, read-out: AUC0-t) was 29300 µg·h/mL and the half-life (whole blood, 200 mg, HV single 200 mg, whole blood, mean, read-out: t1/2 (converted)) was 28.4 days. For the same compound, the Cmax (whole blood, 400 mg, HV single 400 mg, mean) was 88100 ng/mL, the AUC(0-t) (whole blood, 400 mg, HV single 400 mg, whole blood, mean, read-out: AUC0-t) was 61900 µg·h/mL and the half-life (whole blood, 400 mg, HV single 400 mg, whole blood, mean, read-out: t1/2 (converted)) was 25.8 days. It also gave a Cmax (whole blood, 800 mg, HV single 800 mg, mean) of 149000 ng/mL, an AUC(0-t) (whole blood, 800 mg, HV single 800 mg, whole blood, mean, blood collected up to day 42, read-out: AUC0-t) of 74300 µg·h/mL and a Cmax (whole blood, 1400 mg, HV single 1400 mg, mean) of 231000 ng/mL. It also gave an AUC(0-t) (whole blood, 1400 mg, HV single 1400 mg, whole blood, mean, blood collected up to day 42, read-out: AUC0-t) of 137000 µg·h/mL.
